{
  "source": "patent US20050101542A1",
  "about": "“Combination therapy for controlling appetites” (Regents of the University of California, priority 2002, published 2005)",
  "key": {"[1]": {"test": "Acute food intake in 24-h food-deprived rats, i.p. dosing", "assay_type": "in vivo, rat", "procedure": "Feeding experiments. Acute experiments. Food intake was measured in 24-h food-deprived rats (Navarro, et al., J. Neurochem., 67:1982-1991 (1996)), administering drugs 15 min before food presentation. Subchronic experiments. Ad libitum fed rats received vehicle injections for three days. On day four, the animals were divided in two equal groups and gave them daily injections of vehicle or OEA (5 mg per kg at 1900 h) for 7 consecutive days, while measuring body weight, food intake and water intake.\nThe effects of systemically administered OEA or an OEA-like compound or OEA-like modulator on food intake in rats can be assessed using a 24 h fast. […] To define the selectivity of this response, various OEA analogs were evaluated for their ability to produce hypophagia."}, "c-fos mRNA": {"system": "c-fos mRNA", "test": "c-fos mRNA in situ hybridization in rat brain", "assay_type": "in vivo", "conditions": "10 mg per kg i.p., 60 min; PVN, supraoptic nucleus, NST", "procedure": "In situ hybridization. Rats were accustomed to the handling and injection procedure for five days. On day six, vehicle or drug OEA (10 mg per kg, i.p.), or oleic acid (10 mg per kg) was administered, and the rats killed 60 min later by decapitation under anesthesia. In situ hybridization analyses were conducted using ^35S-labeled cRNA probes for c-fos (Guthrie et al., Proc. Natl. Acad. Sci. U.S.A., 90:3329-3333 (1993)) and choline acetyl transferase (ChAT) (Lauterborn et al., Brain Res. Mol. Brain Res., 17:59-69 (1993)). Average hybridization densities were determined from at least three tissue sections per rat. Statistical significance was evaluated using one-way analysis of variance (ANOVA) followed by the Tukey-Kramer post-hoc test for paired comparisons.\nThe compounds of the invention may use peripheral sensory inputs to suppress appetite. Peripheral sensory inputs related to appetite suppression recruit several CNS structures, which include the nucleus of the solitary tract (NST) in the brainstem and the arcuate and paraventricular (PVN) Nuclei in the hypothalamus (Schwartz et al., Nature, 404:661-671 (2000)). To identify the brain pathways engaged during OEA-induced hypophagia, mRNA levels for the activity regulated gene c-fos (Curran et al., Oncogene, 2:79-84 (1987)) were mapped by in situ hybridization after systemic administration of OEA, oleic acid or vehicle. […]"}, "Hepatocyte": {"system": "Hepatocyte", "test": "[14C]oleate oxidation to ketone bodies in hepatocytes", "assay_type": "cell-based, rat", "conditions": "10 min incubation", "from_the_text": "OEA-like compounds and modulators can be used to modulate fat metabolism. Such compounds can also be assayed for their effect on fatty acid metabolism. The effect of the candidate compound on fatty acid metabolism can be measured by measurements of fatty acid oxidation in primary cultures of liver cells. Hepatocytes may be used to determine the rate of oleate oxidation to ketone bodies and carbon dioxide. Such cells can be isolated from adult rat liver by enzymatic digestion as described by Beynen et al. in Diabetes 28:828 (1979). Cells typically are cultured in suspension and incubated in Krebs-Henseleit's bicarbonate medium supplemented with bovine serum albumin and glucose as described by Guzman & Geelen, Biochem. J., 287:487 (1992). The protein concentration of the cultured cells can be determined and cells seeded in 2 ml media so that 4-6 mg protein per ml is present in the reaction mixture. […] Protein concentration can be determined using a Lowry assay. The rate of oleate conversion into ketone bodies may be expressed as nmol of oleate oxidized per hour per mg protein and may be determined using liquid scintillation counting. […]"}, "[2]": {"system": "retinoid X receptor (RXR)", "test": "GAL4 chimeric receptor transactivation assay in HeLa cells, RXR", "assay_type": "cell-based, human", "procedure": "Transactivator plasmids pFA-PPARα, pFA-PPARδ, pFA-PPARγ and pFA-RXR, which encoded for the […] Of hPPARα ? ((499-1404), hPPARδ (412-1320), hPPARγ (610-1434) and hRXR (402-1389) fused to the DNA-binding domain (residues 1-147) Of yeast GAL4 under control of the human cytomegalovirus (CMV) promoter were generated. The plasmids contained a neomycin-resistance gene to provide stable selection with G418 (200 μg-ml^−1; Calbiochem). The HeLa cells were cultured in Dulbecco's-modified Eagles's medium (DMEM) supplemented with fetal bovine serum (10%). The cells were transfected with Fugene 6 (3 μl, Roche) Containing the pFR-luc plasmid (1 μg, Stratagene). Eighteen hours following transfection, the culture media was replaced with supplemented DMEM containing hygromycin (100 μg-ml^−1, Calbiochem). After 4 weeks in culture, the surviving clones were isolated and analyzed by luciferase assay. […] The cells were cultured in supplemented DMEM containing hygromycin and G418. For transactivation assays, cells were seeded in 6-well plates (50,000 cells per well) and incubated for 7 hours in supplemented DMEM containing hygromycin and G418, plus appropriate concentrations of test compounds. Dual-luciferase reporter assay system (Promega) and an MLX Microtiter® plate luminometer (Dynex) were used to determine luciferase activity in cell lysates. […]"}},
  "note": "Several values for one entry are separate records, joined by “and”; a condition that tells them apart may be missing. Identical values can stand only once.",
  "data": [
    {"smiles": "CCCCCCCC/C=C\\CCCCCCCC(=O)NCCO", "note": "[OEA, Z-2-hydroxyethyl octadec-9-enamide]", "values": [
      {"measurement": "food intake (hypophagia)", "setting": "[1]; 24-h food-deprived rats, i.p.", "result": "dose- and time-dependent suppression of food intake"},
      {"measurement": "water intake", "setting": "[1]; acute, 5 or 20 mg per kg", "result": "did not alter"},
      {"measurement": "half-maximally effective dose for hypophagia", "setting": "[1]; i.p., rats", "result": 5, "unit": "mg per kg"},
      {"measurement": "c-fos mRNA levels in brain regions", "setting": "c-fos mRNA", "result": "highly localized increase"},
      {"measurement": "Stimulatory effect of 10 μM OEA on [14C]oleate oxidation to ketone bodies", "setting": "Hepatocyte", "result": "21+−6% and 21 ± 6 (n = 4) %"},
      {"measurement": "effect on RXR", "setting": "[2]", "result": "no effect"}
    ]}
  ]
}
